For assay [1], the system named is Staphylococcus aureus. Kind of assay: Antibacterial activity against Staphylococcus aureus ATCC 25923 by disc diffusion method. The format is functional. The note with it: for MIC: Staphylococcus aureus, ATCC 25923, read-out: MIC. (Agar diffusion results depend on both activity and mobility in agar.)
Assay [2] relates to Klebsiella pneumoniae. The assay can be described thus: Antibacterial activity against Klebsiella pneumoniae by disc diffusion method. In kind it is functional. The conditions noted are these: for MIC: Klebsiella pneumoniae.
The subject of assay [3] is Mus musculus. Kind of assay: Anticonvulsant activity in Swiss Albino mouse assessed as duration of seizure at 2 mg/kg, po by PTZ induced seizure test. The format is functional.
The subject of assay [4] is Aspergillus flavus. The assay can be described thus: Antifungal activity against Aspergillus flavus NCIM 524 by serial plate dilution method. In kind it is functional. The conditions noted are these: for MIC: Aspergillus flavus, NCIM 524.
Assay [5] concerns Pseudomonas aeruginosa. Kind of assay: Antibacterial activity against Pseudomonas aeruginosa ATCC 27853 by disc diffusion method. The format is functional. The conditions noted are these: for MIC: Pseudomonas aeruginosa, ATCC 27853.
Assay [6] concerns Mus musculus. The assay can be described thus: Anticonvulsant activity in Swiss Albino mouse assessed as duration of seizure at 50 mg/kg, po by PTZ induced seizure test. The format is functional.
Assay [7] relates to Aspergillus fumigatus. The assay can be described thus: Antifungal activity against Aspergillus fumigatus NCIM 902 by serial plate dilution method. The format is functional. The conditions noted are these: for MIC: Aspergillus fumigatus, NCIM 902.
Assay [8] relates to Escherichia coli. The assay can be described thus: Antibacterial activity against Escherichia coli ATCC 25922 by disc diffusion method. The format is functional. The note with it: for MIC: Escherichia coli, ATCC 25922.
The test system of assay [9] is Rattus norvegicus. Kind of assay: Antiinflammatory activity in Wister Albino rat assessed as inhibition of paw edema at 50 mg/kg, po after 3hrs. In kind it is functional.
The test system of assay [10] is Talaromyces marneffei. Kind of assay: Antifungal activity against Penicillium marneffei by serial plate dilution method. The format is functional. The conditions noted are these: for MIC: Talaromyces marneffei.
Assay [11] has as its system Mus musculus. Kind of assay: Anticonvulsant activity in Swiss Albino mouse assessed as mortality at 50 mg/kg, po by PTZ induced seizure test. The format is functional, organism-based. Also noted: dose 50 mg/kg.
Assay [12] has as its system Trichophyton benhamiae. The assay can be described thus: Antifungal activity against Trichophyton mentagrophytes by serial plate dilution method. The format is functional, Arthroderma benhamiae. The note with it: for MIC: Trichophyton benhamiae.
For assay [13], the system named is Mus musculus. Kind of assay: Antianxiety study in Swiss Albino mouse assessed as time spent in open arm at 50 mg/kg by elevated plus maze model. The format is functional.
The species entered for assay [14] is Mus musculus. Kind of assay: Effect on learning and memory in Swiss Albino mouse assessed as latent period on second day. The format is functional.
In assay [15] the test system is Mus musculus. The assay can be described thus: Effect on coordination in Swiss Albino mouse at 50 mg/kg by rotarod accelorod test. The format is functional. (In general: In the rotarod test animals must keep their balance on a rotating rod.)
In assay [16] the test system is Mus musculus. Kind of assay: Antianxiety study in Swiss Albino mouse assessed as ratio of number of entreis in open arm to total entries at 50 mg/kg by elevated plus maze test. In kind it is functional.
For assay [17], the system named is Mus musculus. The assay can be described thus: Antianxiety study in Swiss Albino mouse assessed as time spent in close arm at 50 mg/kg by elevated plus maze model. The format is functional.
The species named for assay [18] is Mus musculus. The assay can be described thus: Effect on learning and memory in Swiss Albino mouse assessed as latent period on first day. The format is functional.
Assay [19] relates to Mus musculus. Kind of assay: Anticonvulsant activity in Swiss Albino mouse assessed as latency period at 50 mg/kg, po by PTZ induced seizure test. In kind it is functional, organism-based. More on the design: dose 50 mg/kg.
Assay [20] deals with Rattus norvegicus. Kind of assay: Antiinflammatory activity in Wister Albino rat assessed as inhibition of paw edema at 1.5 mg/kg, po after 3hrs. In kind it is functional.

≈ marks a conversion by molar mass, not a printed value. Calls of active or inactive are those of the source. The calls are words filed in the database; no cut-off is given here.

For the molecule `O=c1c2c3c(sc2nc2sc(-c4ccccc4)nn12)CCCC3`, the “inhibition zone (IZ)” value in [1] is 18 mm; in assay [2], 16 mm; in assay [4], 7 mm; in [5] it was 18 mm; in assay [7] it was 18 mm; in [8] it was 9 mm. In addition, the “inhibition zone (IZ)” value in [10] came to 16 mm; in assay [12], 7 mm. Also, the MIC (in general, the least concentration at which growth counts as inhibited) in assay [1] was 60 µg/mL (≈ 177 µM); in assay [2] it was 60 µg/mL (≈ 177 µM); in [4] it was greater than 100 µg/mL; in assay [5] it was 60 µg/mL (≈ 177 µM); in assay [7], 12.5 µg/mL (≈ 36.8 µM); in [8] it was 100 µg/mL (≈ 295 µM). Further, the MIC is 12.5 µg/mL (≈ 36.8 µM) in [10] and greater than 100 µg/mL in [12]. Moreover, the Activity in assay [3] is given as 58 s; in assay [6], 65 s. Besides, in assay [9], the inhibition in vivo (as a rule, the relative decrease from the control value, in per cent) at 50 mg/kg came out at 24.4%. In addition, in assay [11], the outcome was inactive.
`CCCc1nn2c(=O)c3c4c(sc3nc2s1)CCCC4`: the “inhibition zone (IZ)” value in [1] is 20 mm; in assay [2], 26 mm; in assay [4], 28 mm; in [5], 22 mm; in assay [7] it was 26 mm; in assay [8], 18 mm. The “inhibition zone (IZ)” value worked out at 19 mm in [10] and 6 mm in assay [12]. The MIC in [1] was 10 µg/mL (≈ 32.7 µM); in assay [2] it was 6.25 µg/mL (≈ 20.5 µM); in assay [4], less than 6.25 µg/mL; in [5], 10 µg/mL (≈ 32.7 µM); in assay [7], less than 6.25 µg/mL; in assay [8], 10 µg/mL (≈ 32.7 µM). Moreover, the values for the MIC in assay [10] and in assay [12] were 12.5 µg/mL (≈ 40.9 µM) and greater than 100 µg/mL, respectively. Also, the Activity in assay [3] stood at 73 s; in assay [6] it was 75 s. Also, the inhibition in vivo at 50 mg/kg in assay [9] came out at 30.8%. Also, in assay [11], the result was inactive.
Regarding `Cc1cccc(-c2nn3c(=O)c4c5c(sc4nc3s2)CCCC5)c1`, the “inhibition zone (IZ)” value in [1] came out at 20 mm; in [2] it was 10 mm; in assay [4], 6 mm; in assay [5], 20 mm; in assay [7], 18 mm; in assay [8], 8 mm. The “inhibition zone (IZ)” value is 18 mm in assay [10] and 4 mm in assay [12]. Besides, the MIC in [1] is 10 µg/mL (≈ 28.3 µM); in assay [2], 80 µg/mL (≈ 226 µM); in assay [4], greater than 100 µg/mL; in assay [5], 10 µg/mL (≈ 28.3 µM); in [7], 12.5 µg/mL (≈ 35.4 µM); in assay [8], greater than 100 µg/mL. In addition, the MIC in assay [10] is 12.5 µg/mL (≈ 35.4 µM); in assay [12], greater than 100 µg/mL. In addition, the Activity in [3] was 51 s; in [6], 220 s. Besides, the inhibition in vivo at 50 mg/kg in assay [9] was 51.1%. In addition, the result in assay [11] was inactive.
In the case of `Cc1nn2c(=O)c3c4c(sc3nc2s1)CCCC4`, the “inhibition zone (IZ)” value is listed as 20 mm in assay [1]; 20 mm in assay [2]; 12 mm in assay [4]; 22 mm in assay [5]; 16 mm in assay [7]; 18 mm in [8]. For the same molecule, the “inhibition zone (IZ)” value in assay [10] is recorded as 16 mm; in assay [12], 7 mm. Further, the MIC in [1] was found to be 10 µg/mL (≈ 36.1 µM); in [2], 10 µg/mL (≈ 36.1 µM); in assay [4] it was 80 µg/mL (≈ 288 µM); in assay [5], 6.25 µg/mL (≈ 22.5 µM); in [7], 12.5 µg/mL (≈ 45.1 µM); in assay [8], 10 µg/mL (≈ 36.1 µM). Moreover, the MIC was 12.5 µg/mL (≈ 45.1 µM) in assay [10] and greater than 100 µg/mL in assay [12]. In addition, the Activity turned out to be 3600 s in assay [3]; 4 s in assay [13]; 0 s in assay [6]; 25 s in [14]; 284 s in [15]; 16.67% in assay [16]. Besides, the Activity in [17] came to 285 s; in assay [18], 39 s. In assay [9], the inhibition in vivo at 50 mg/kg is 34.6%. Moreover, the outcome in [11] was Active.
As for `O=c1c2c3c(sc2nc2sc(-c4ccc([N+](=O)[O-])cc4)nn12)CCCC3`, the “inhibition zone (IZ)” value in assay [1] was determined as 8 mm; in assay [2], 20 mm; in [4], 10 mm; in assay [5], 9 mm; in [7] it was 5 mm; in assay [8], 8 mm. The “inhibition zone (IZ)” value in [10] and in [12] was 6 mm throughout. In addition, the MIC in assay [1] was greater than 100 µg/mL; in assay [2], 10 µg/mL (≈ 26 µM); in assay [4], 80 µg/mL (≈ 208 µM); in assay [5] it was 100 µg/mL (≈ 260 µM); in [7] it was greater than 100 µg/mL; in [8] it was greater than 100 µg/mL. For the same molecule, the MIC in assay [10] and in assay [12] was greater than 100 µg/mL throughout. The Activity came out at 56 s in assay [3] and 40 s in assay [6]. In addition, in assay [9], the inhibition in vivo at 50 mg/kg was 48.9%. The result in assay [11] was inactive.
Consider `CN1C(=O)CN=C(c2ccccc2)c2cc(Cl)ccc21`, for which the result in [19] was Active.
As for `Cc1cc(C)cc(-c2nn3c(=O)c4c5c(sc4nc3s2)CCCC5)c1`, the “inhibition zone (IZ)” value in [1] amounted to 8 mm; in assay [2], 20 mm; in [4] it was 7 mm; in assay [5] it was 18 mm; in assay [7], 18 mm; in assay [8] it was 16 mm. The “inhibition zone (IZ)” value is reported as 18 mm in assay [10] and 9 mm in assay [12]. In addition, the MIC in assay [1] is greater than 100 µg/mL; in [2], 10 µg/mL (≈ 27.2 µM); in [4], greater than 100 µg/mL; in assay [5], 60 µg/mL (≈ 163 µM); in assay [7] it was 12.5 µg/mL (≈ 34 µM); in [8], 60 µg/mL (≈ 163 µM). Besides, the values for the MIC in assay [10] and in [12] were 12.5 µg/mL (≈ 34 µM) and 80 µg/mL (≈ 218 µM), respectively. Besides, the Activity in assay [3] amounted to 68 s; in [13], 56 s; in assay [6], 0 s; in assay [14], 18 s; in assay [15], 256 s; in [16], 7.14%. Further, the figures for the Activity in assay [17] and in [18] were 231 s and 34 s, respectively. In addition, the inhibition in vivo at 50 mg/kg in assay [9] is 31.1%. Besides, in assay [11], the outcome was Active.
`COc1ccc2c(c1)c(CC(=O)O)c(C)n2C(=O)c1ccc(Cl)cc1` [INDOMETHACIN]: in assay [20], the inhibition in vivo at 1.5 mg/kg is 53.3%.

These data come from ChEMBL document CHEMBL1146350, “Synthesis of some new bioactive 3-amino-2-mercapto-5,6,7,8-tetrahydro[1]benzothieno[2,3-d]pyrimidin-4(3H)-one derivatives” (2007).
